Entries after “also recorded” stand apart in the source; their conditions may differ.
What was measured:
[1] = tested on: Recessive dystrophic epidermolysis bullosa (RDEB) mice; details: four weeks, results published by Nyström et al.; cited from earlier work
[2] = tested on: Recessive dystrophic epidermolysis bullosa (RDEB) mice; experiment: Toe length and loss/fusion of digits in RDEB mice treated four weeks; assay type: in vivo, mouse
Protocol: FIGS. 1A-1B. Recessive dystrophic epidermolysis bullosa (RDEB) mice were treated with angiotensin (1-7) peptide for four weeks. FIG. 1A consists of images of the right forepaw of a RDEB mouse before and after treatment with angiotensin (1-7). […] FIG. 1B is a graph of the average toe length of RDEB mice treated with angiotensin (1-7) peptide for four weeks (“Tarix”) or a vehicle control (“Vehicle”) as a percentage of average toe length before treatment.
FIG. 2 is a graph of average toe length of recessive dystrophic epidermolysis bullosa (RDEB) mice treated with either angiotensin (1-7) peptide, losartan, or a vehicle control for four weeks as a percentage of average toe length before treatment.
Recessive dystrophic epidermolysis bullosa (RDEB) is caused by a mutation in the gene encoding type VII collagen. RDEB mice display marked fibrosis, which leads to deleterious phenotypes including the fibrosis-driven loss and fusion of digits over time (see, e.g., Nyström, A. et al., EMBO MOLECULAR MEDICINE 7(9):1211-28 (2015)).
RDEB mice were treated with angiotensin (1-7) for four weeks (nine mice) or left untreated (three mice). Three wild type mice served as controls.

tenascin-C [3] = experiment: Tenascin-C immunostaining of mouse forepaw cryosections; assay type: in vivo; details: RDEB mice, four weeks treatment, relative to untreated RDEB controls; P<0.001
Description: FIG. 3 depicts images of tenascin-C immunostained cryosections of mouse forepaws. The cryosections were obtained from age-matched wild-type mice, untreated recessive dystrophic epidermolysis bullosa (RDEB) mice, and RDEB mice treated with angiotensin (1-7) for four weeks. Each top panel corresponds to cryosections of the walking pads of a mouse, and each bottom panel corresponds to sections of toes. Tenascin-C is present at low abundance in uninjured skin, and it increases in fibrotic skin. […] Tenascin-C staining was observed primarily just below the dermal-epidermal junction in angiotensin (1-7) treated mice, which corresponds to the initial site of injury in RDEB mice. Cells were counterstained with 4′,6-diamidino-2-phenylindole (DAPI), and the scale bar corresponds to 200 μm.
FIG. 4 is a graph depicting the quantification of the fluorescence intensity of cryosection images of mouse forepaws immunostained with an anti-tenascin-C antibody. […]
Immunostaining was performed on cryosections of mouse forepaws of wild-type mice, untreated RDEB mice, and RDEB mice treated with angiotensin (1-7) for four weeks. […] Tenascin-C immunostaining was visualized using fluorescence microscopy (FIG. 3). Immunostaining was quantified with ImageJ software on images obtained with identical microscope settings and exposure time. […]

thrombospondin-1 = experiment: Western blot of whole protein lysates of mouse forepaws: thrombospondin-1; assay type: in vivo; details: RDEB mouse forepaw lysates, four weeks treatment, relative to untreated RDEB mice
Description: (§1) FIG. 7 depicts tenascin-C, thrombospondin-1, pSMAD2/3, galectin 3, and β-tubulin Western blots of whole protein lysates of mouse forepaws. Samples were obtained from age-matched wild-type mice, untreated recessive dystrophic epidermolysis bullosa (RDEB) mice, and RDEB mice treated with angiotensin (1-7) for four weeks.
(§2) FIG. 8 is a graph depicting the quantification of Western blot bands immunostained with antibodies directed against tenascin-C, thrombospondin-1, pSMAD2/3, and galectin 3. Samples consisted of whole protein lysates of mouse forepaws obtained from age-matched wild-type mice, untreated recessive dystrophic epidermolysis bullosa (RDEB) mice, and RDEB mice treated with angiotensin (1-7) for four weeks. Samples were normalized against β-tubulin. […] Each bar corresponds to a mean value, and error bars correspond to standard error of the mean (SEM).
(§3) Whole protein lysates from mouse forepaws were analyzed by Western blotting with antibodies directed against tenascin-C, thrombospondin-1, pSMAD2/3, galectin 3, and β-tubulin (FIG. 7). Thrombospondin 1 can activate transforming growth factor beta (TGFβ) signaling, which is associated with fibrosis. TGFβ signals through an intracellular SMAD pathway, and thus, phosphorylated-SMAD (e.g., pSMAD2/3) correlates with TGFβ-associated fibrosis. […] Western blotting results were quantified by densitometry and normalized against β-tubulin.

pSMAD2/3 = experiment: Western blot of whole protein lysates of mouse forepaws: pSMAD2/3; assay type: in vivo; details: RDEB mouse forepaw lysates, four weeks treatment, relative to untreated RDEB mice
Description: as §1, §2, §3

galectin 3 = experiment: Western blot of whole protein lysates of mouse forepaws: galectin 3; assay type: in vivo; details: RDEB mouse forepaw lysates, four weeks treatment, relative to untreated RDEB mice
Description: as §1, §2, §3

[4] = tested on: α-SMA positive myofibroblasts; experiment: α-SMA immunostaining of mouse forepaw cryosections; assay type: in vivo; details: RDEB mice, four weeks treatment, relative to untreated RDEB mice
Description: (§4) FIG. 5 depicts images of α-SMA (top panel), fibronectin (middle panel), and CD11b (bottom panel) immunostained cryosections of mouse forepaws. The cryosections were obtained from age-matched wild-type mice, untreated recessive dystrophic epidermolysis bullosa (RDEB) mice, and RDEB mice treated with angiotensin (1-7) for four weeks. […] Cells were counterstained with 4′,6-diamidino-2-phenylindole (DAPI).
(§5) Cryosections of mouse forepaws were also immunostained for α-SMA (alpha smooth muscle actin), fibronectin, and CD11b. α-SMA is a myofibroblast cell marker, which correlates with fibrotic disease. Fibronectin correlates with dermal fibrosis. CD11b (integrin αM subunit) is a leukocyte marker, which is expressed by monocytes, granulocytes (e.g., neutrophils), macrophages, and natural killer cells.

[5] = tested on: Recessive dystrophic epidermolysis bullosa (RDEB) mice; experiment: Blistering of forepaws of RDEB mice; assay type: in vivo, mouse; details: four weeks treatment, wild type controls lacked blistering
tenascin-C [6] = experiment: Western blot of whole protein lysates of mouse forepaws: tenascin-C; assay type: in vivo; details: RDEB mouse forepaw lysates, four weeks treatment, relative to untreated RDEB mice
Description: as §1, §2, §3

[7] = tested on: CD11b-positive inflammatory leukocytes; experiment: CD11b immunostaining of mouse forepaw cryosections, CD11b-positive cells counted with ImageJ; assay type: in vivo; details: RDEB mice, four weeks treatment
Description: as §4
FIG. 6 is a graph depicting the quantification of CD11b-positive cells per mm^2 in images of immunostained cryosections of mouse forepaws. The cryosections were obtained from age-matched wild-type mice, untreated recessive dystrophic epidermolysis bullosa (RDEB) mice, and RDEB mice treated with angiotensin (1-7) for four weeks. CD11b stains neutrophils and macrophages. […] Each bar corresponds to a mean value, and error bars correspond to standard error of the mean (SEM).
Cryosections of mouse forepaws were also immunostained for α-SMA (alpha smooth muscle actin), fibronectin, and CD11b. α-SMA is a myofibroblast cell marker, which correlates with fibrotic disease. Fibronectin correlates with dermal fibrosis. […]
The number of CD11b-positive cells per mm^2 was quantified using ImageJ software. […] Identical thresholds were applied to all images, the images were converted to binary images, and all particles >10 pixles^2 were automatically counted.

fibronectin = experiment: Fibronectin immunostaining of mouse forepaw cryosections; assay type: in vivo; details: RDEB mice, four weeks treatment, relative to untreated RDEB mice
Description: as §4, §5

Compound | average toe length as a percentage of average toe length before treatment (losartan) [1] | average toe length as a percentage of average toe length before treatment ([2]; relative to vehicle-treated RDEB controls (results published by Nyström et al.)) | fibrosis-driven loss and fusion of digits ([2]; right forepaw, four weeks treatment) | tenascin-C immunostaining (fluorescence intensity) in forepaw dermis (tenascin-C [3]) | thrombospondin-1 abundance, Western blot normalized against β-tubulin (thrombospondin-1) | phosphorylated SMAD2/3 (pSMAD2/3) abundance, Western blot normalized against β-tubulin (pSMAD2/3) | galectin-3 abundance, Western blot normalized against β-tubulin (galectin 3) | α-SMA positive cells (myofibroblasts) in forepaw [4] | blistering of forepaws [5] | tenascin-C abundance, Western blot normalized against β-tubulin (tenascin-C [6]) | CD11b-positive cells in forepaw dermis ([7]; relative to untreated RDEB mice) | number of CD11b-positive cells per mm^2 compared with wild type mice ([7]; versus age-matched wild type mice) | dermal fibronectin immunostaining in forepaw (fibronectin)
CCCCc1nc(Cl)c(CO)n1Cc1ccc(-c2ccccc2-c2nn[nH]n2)cc1 [losartan] | similar | – | – | – | – | – | – | – | – | – | – | – | –
Asp^1-Arg^2-Val^3-Tyr^4-Ile^5-His^6-Pro^7 [angiotensin (1-7)] | – | significant reduction in the decrease in toe length; also recorded: protected against RDEB-associated decreases in toe length | reduced the expression of this deleterious phenotype; also recorded: protected against RDEB-associated decreases in toe length and fusion of digits | significant (P<0.001) reduction in tenascin-C staining; also recorded: significantly lowered the amount of tenascin-C staining; also recorded: significant reduction in tenascin-C immunostaining | reduced abundance of the TGFβ activator thrombospondin-1 | reduced abundance of phosphorylated SMAD2/3 | reduced galectin-3 | fewer α-SMA positive cells; also recorded: reduced the number of α-SMA positive myofibroblasts | displayed blistering | reduced tenascin-C | fewer CD11b-positive cells; also recorded: reduced; also recorded: reduction in CD11b-positive cell density | about the same number of CD11b-positive cells per mm^2 as wild type mice | less fibronectin immunostaining; also recorded: reduced

Source: patent US10960045B2, “Methods and compositions for the treatment of epidermolysis bullosa” (Constant Therapeutics LLC, priority 2015, dated 2021)
